Measurements reported in patent US20240173312A1, “Pharmaceutical Composition Comprising a Benzoheterocyclic Compound and Androgen Receptor Pathway Modulator and Application Thereof” (KANGPU BIOPHARMACEUTICALS, LTD., priority 2015, published 2024).
Read-outs that look alike come from different tables or passages of the source.

Tested on: Vcap cells (androgen receptor (+) prostate cancer cells)
Test: CTG cell proliferation assay (CellTiter-Glo)
Settings: for viability at 0.1 µM / viability at 1 µM / viability at 10 µM: Homo sapiens, VCaP, 120 h; for Cell survival rate: notes of Table 9: 1.0 μM tested compound in combination with 1.0 μM Enzalutamide
[1] = read-out: Survival rate of Vcap cells, Table 4, tested compound alone
[2] = read-out: Survival rate of Vcap cells, Table 10, tested compound alone
[3] = read-out: Survival rate of Vcap cells, Table 10, tested compound alone, 1.0 μM
[4] = Table 10, tested compound 0.1 μM in combination with 1 μM B001
[5] = Table 10, tested compound 1.0 μM in combination with 1 μM B001
[6] = Table 10, tested compound 10 μM in combination with 1 μM B001
[7] = read-out: Survival rate of Vcap cells, Table 9, tested compound alone
[8] = read-out: Survival rate of Vcap cells, Table 9, tested compound alone, 1.0 μM
[9] = Table 9, tested compound 0.1 μM in combination with 1 μM ARN-509
[10] = Table 9, tested compound 0.1 μM in combination with 1 μM Enzalutamide
[11] = Table 9, tested compound 1.0 μM in combination with 1 μM ARN-509
[12] = Table 9, tested compound 1.0 μM in combination with 1 μM Enzalutamide
[13] = Table 9, tested compound 10 μM in combination with 1 μM ARN-509
[14] = Table 9, tested compound 10 μM in combination with 1 μM Enzalutamide

Experimental: In vitro test of the inhibition effect of the compound in combination with androgen receptor pathway modulators and the like on the prostate cancer cell proliferation.
The tested compounds were used alone or in combination with other androgen receptor pathway modulators respectively. […] After that, 100 μl of CellTiter-Glo® cell viability assay reagent (Promega, catalogue number G7570) was added to each well and mixed well on a vibrator for 10 minutes to induce cell lysis. The 96-well plate was placed at room temperature for 10 minutes, so as to stabilize its luminescence signal. A white bottom membrane was pasted on the bottom of the plate and the plate was tested using EnSpire.

Structure (SMILES)	viability at 0.1 µM [1] [%]	viability at 1 µM (read-out: Survival rate of Vcap cells, Table 4, tested compound alone, 1 μM) [%]	viability at 10 µM [1] [%]	viability at 0.1 µM [2] [%]	viability at 1 µM [3] [%]	viability at 10 µM [2] [%]	Survival rate of Vcap cells (Table 4, tested compound alone, 1 μM) [%]	Survival rate of Vcap cells [4] [%]	Survival rate of Vcap cells [5] [%]	Survival rate of Vcap cells [6] [%]	viability at 0.1 µM [7] [%]	viability at 1 µM [8] [%]	viability at 10 µM [7] [%]	Survival rate of Vcap cells [9] [%]	Survival rate of Vcap cells [10] [%]	Survival rate of Vcap cells [11] [%]	Survival rate of Vcap cells [12] [%]	Survival rate of Vcap cells [13] [%]	Survival rate of Vcap cells [14] [%]	Cell survival rate [%]
CC(=O)O[C@H]1CC[C@@]2(C)C(=CC[C@@H]3[C@@H]2CC[C@]2(C)C(c4cccnc4)=CC[C@@H]32)C1 [Abiraterone acetate, reference compound]	106	91.7	31.4	96.1	97	60.5	91.7	79.8	70.5	66.9	–	–	–	–	–	–	–	–	–	–
C[C@]12CC[C@H](O)CC1=CC[C@@H]1[C@@H]2CC[C@]2(C)C(c3cccnc3)=CC[C@@H]12 [Abiraterone, reference compound]	–	–	–	98.5	92.4	81.9	–	78.9	74.9	66.3	–	–	–	–	–	–	–	–	–	–
Nc1cccc2c1CN([C@H]1CCC(=O)NC1=O)C2=O [B002]	–	–	–	–	–	–	–	–	–	–	85.6	79.8	75.9	52.5	53.9	44.7	44.7	44.3	43.1	44.7
Nc1cccc2c1CN([C@@H]1CCC(=O)NC1=O)C2=O [B003]	–	–	–	–	–	–	–	–	–	–	83.7	81.3	80.4	54.0	–	46.5	45.4	42.4	44.2	–
[2H]C1(N2Cc3c(N)cccc3C2=O)CCC(=O)NC1=O (stereo not shown) [B004]	–	–	–	–	–	–	–	–	–	–	94.1	88.4	88	59.1	60.4	51.2	50.8	48.0	51.1	51.2
[2H][C@]1(N2Cc3c(N)cccc3C2=O)CCC(=O)NC1=O [B005]	–	–	–	–	–	–	–	–	–	–	91.1	85	83.5	53.4	56.5	47.6	48.4	46.2	46.5	47.6
[2H][C@@]1(N2Cc3c(N)cccc3C2=O)CCC(=O)NC1=O [B006]	–	–	–	–	–	–	–	–	–	–	91.7	89.7	85.7	63.2	61.2	51.7	50.5	45.0	48.3	51.7
